From patent US7595401B2, “Therapeutic compounds and their use in cancer” (Myriad Pharmaceuticals, Inc., priority 2006, dated 2009)

Molecular target: purified human Hsp90
Test: Binding Assay: fluorescence polarization with BODIPY-labeled geldanamycin
Conditions: BODIPY-GM 10 nM, Hsp90 30 nM
Outline: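 Fluorescence polarization competition with BODIPY-geldanamycin (10 nM final) and human Hsp90 (30 nM final) in HEPES-KOH pH 7.3 buffer with molybdate, NP-40, DTT; 2% DMSO, overnight at room temperature. Read 485/530 nm; percent inhibition from mP normalized to DMSO controls, fluorescent-compound points excluded.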

IC50	% Inhibition at 5 μM Compound Concentration	SMILES
–	8%	CCOc1ccc(OCC)c(Sc2nc3c(N)ncn(CCc4ccccc4)c-3n2)c1 [Example 190, 8-(2,5-diethoxy-phenylsulfanyl)-3-phenethyl-3H-purin-6-ylamine]
–	0%	CCOc1ccc(OCC)c(Sc2nc3c(N)ncn(CCc4ccccc4Cl)c-3n2)c1 [Example 192, 3-[2-(2-chloro-phenyl)-ethyl]-8-(2,5-diethoxy-phenylsulfanyl)-3H-purin-6-ylamine]
310 nM	39%	COc1cc(CCn2c(Sc3cc(OC)ccc3OC)nc3c(N)ncnc32)cc(OC)c1 [Example 193, 9-[2-(3,5-dimethoxy-phenyl)-ethyl]-8-(2,5-dimethoxy-phenylsulfanyl)-9H-purin-6-ylamine]
–	0%	COc1cc(CCn2cnc(N)c3nc(Sc4cc(OC)ccc4OC)nc2-3)cc(OC)c1 [Example 194, 3-[2-(3,5-dimethoxy-phenyl)-ethyl]-8-(2,5-dimethoxy-phenylsulfanyl)-3H-purin-6-ylamine]
79 nM	80%	COc1cc(CCn2c(Sc3cc4c(cc3Br)OCO4)nc3c(N)ncnc32)cc(OC)c1 [Example 195, 8-(6-Bromo-benzo[1,3]dioxol-5-ylsulfanyl)-9-[2-(3,5-dimethoxy-phenyl)-ethyl]-9H-purin-6-ylamine]
–	10%	COc1cc(CCn2cnc(N)c3nc(Sc4cc5c(cc4Br)OCO5)nc2-3)cc(OC)c1 [Example 196, 8-(6-Bromo-benzo[1,3]dioxol-5-ylsulfanyl)-3-[2-(3,5-dimethoxy-phenyl)-ethyl]-3H-purin-6-ylamine]
–	18%	COc1ccc(OC)c(Sc2nc3c(N)ncn(CCc4ccsc4)c-3n2)c1 [Example 198, 8-(2,5-dimethoxy-phenylsulfanyl)-3-(2-thiophen-3-yl-ethyl)-3H-purin-6-ylamine]
–	18%	COc1ccc(OC)c(Sc2nc3c(N)ncn(CCc4cccs4)c-3n2)c1 [Example 200, 8-(2,5-dimethoxy-phenylsulfanyl)-3-(2-thiophen-2-yl-ethyl)-3H-purin-6-ylamine]
72 nM	–	Nc1ncnc2c1nc(Sc1cc3c(cc1Br)OCO3)n2CCc1ccsc1 [Example 201, 8-(6-Bromo-benzo[1,3]dioxol-5-ylsulfanyl)-9-(2-thiophen-3-yl-ethyl)-9H-purin-6-ylamine]
–	9%	Nc1ncn(CCc2ccsc2)c2nc(Sc3cc4c(cc3Br)OCO4)nc1-2 [Example 202, 8-(6-bromo-benzo[1,3]dioxol-5-ylsulfanyl)-3-(2-thiophen-3-yl-ethyl)-3H-purin-6-ylamine]
90 nM	–	Nc1ncnc2c1nc(Sc1cc3c(cc1Br)OCO3)n2CCc1cccs1 [Example 203, 8-(6-Bromo-benzo[1,3]dioxol-5-ylsulfanyl)-9-(2-thiophen-2-yl-ethyl)-9H-purin-6-ylamine]
–	11%	Nc1ncn(CCc2cccs2)c2nc(Sc3cc4c(cc3Br)OCO4)nc1-2 [Example 204, 8-(6-bromo-benzo[1,3]dioxol-5-ylsulfanyl)-3-(2-thiophen-2-yl-ethyl)-3H-purin-6-ylamine]
–	0%	COc1ccc(OC)c(Sc2nc3c(N)ncn(CCc4ccccc4[N+](=O)[O-])c-3n2)c1 [Example 206, 8-(2,5-dimethoxy-phenylsulfanyl)-3-[2-(2-nitro-phenyl)-ethyl]-3H-purin-6-ylamine]
38 nM	–	Nc1ncnc2c1nc(Sc1cc3c(cc1Br)OCO3)n2CCc1ccccc1[N+](=O)[O-] [Example 207, 8-(6-Bromo-benzo[1,3]dioxol-5-ylsulfanyl)-9-[2-(2-nitro-phenyl)-ethyl]-9H-purin-6-ylamine]
> 25000 nM	46%	Nc1ncn(CCc2ccccc2[N+](=O)[O-])c2nc(Sc3cc4c(cc3Br)OCO4)nc1-2 [Example 208, 8-(6-bromo-benzo[1,3]dioxol-5-ylsulfanyl)-3-[2-(2-nitro-phenyl)-ethyl]-3H-purin-6-ylamine]
–	8%	Nc1ncn(CCc2ccccc2)c2nc(Cc3cc4c(cc3Br)OCO4)nc1-2 [Example 210, 8-(6-Bromo-benzo[1,3]dioxol-5-ylmethyl)-3-phenethyl-3H-purin-6-ylamine]
> 25000 nM	–	CC(C)(C)OC(=O)Nc1ccc(CCn2c(Sc3cc4c(cc3Br)OCO4)nc3c(N)ncnc32)cc1 [Example 211, (4-{2-[6-Amino-8-(6-bromo-benzo[1,3]dioxol-5-ylsulfanyl)-purin-9-yl]-ethyl}-phenyl)carbamic acid tert-butyl ester]
–	4%	CC(C)(C)OC(=O)Nc1ccc(CCn2cnc(N)c3nc(Sc4cc5c(cc4Br)OCO5)nc2-3)cc1 [Example 212, (4-{2-[6-amino-8-(6-bromo-benzo[1,3]dioxol-5-ylsulfanyl)-purin-3-yl]-ethyl}-phenyl)carbamic acid tert-butyl ester]
–	0%	COc1ccc(OC)c(Sc2nc3c(N)ncn(CCc4ccc(NC(=O)OC(C)(C)C)cc4)c-3n2)c1 [Example 215, (4-{2-[6-amino-8-(2,5-dimethoxy-phenylsulfanyl)-purin-3-yl]-ethyl}-phenyl)-carbamic acid tert-butyl ester]
–	0%	Nc1ncn(CC(c2ccccc2)C2CCCCC2)c2nc(Sc3cc4c(cc3Br)OCO4)nc1-2 (stereo not shown) [Example 227, 8-[(6-Bromo-1,3-benzodioxol-5-yl)thio]-3-(2-cyclohexyl-2-phenylethyl)-3H-purin-6-amine]

Further lines, the molecule ahead of its results:

SMILES	IC50	% Inhibition at 5 μM Compound Concentration
CCOc1ccc(OCC)c(Sc2nc3c(N)ncnc3n2CCc2ccccc2)c1 [Example 189, 8-(2,5-Diethoxy-phenylsulfanyl)-9-phenethyl-9H-purin-6-ylamine]	> 8000 nM	–
CCOc1ccc(OCC)c(Sc2nc3c(N)ncnc3n2CCc2ccccc2Cl)c1 [Example 191, 9-[2-(2-Chloro-phenyl)-ethyl]-8-(2,5-diethoxy-phenylsulfanyl)-9H-purin-6-ylamine]	> 8000 nM	–
COc1ccc(OC)c(Sc2nc3c(N)ncnc3n2CCc2ccsc2)c1 [Example 197, 8-(2,5-Dimethoxy-phenylsulfanyl)-9-(2-thiophen-3-yl-ethyl)-9H-purin-6-ylamine]	170 nM	–
COc1ccc(OC)c(Sc2nc3c(N)ncnc3n2CCc2cccs2)c1 [Example 199]	110 nM	–
COc1ccc(OC)c(Sc2nc3c(N)ncnc3n2CCc2ccccc2[N+](=O)[O-])c1 [Example 205, 8-(2,5-Dimethoxy-phenylsulfanyl)-9-[2-(2-nitro-phenyl)-ethyl]-9H-purin-6-ylamine]	240 nM	80%
Nc1ncnc2c1nc(Cc1cc3c(cc1Br)OCO3)n2CCc1ccccc1 [Example 209, 8-(6-Bromo-benzo[1,3]dioxol-5-ylmethyl)-9-phenethyl-9H-purin-6-ylamine]	450 nM	–
COc1ccc(OC)c(Sc2nc3c(N)ncnc3n2CCc2ccc(NC(=O)OC(C)(C)C)cc2)c1 [Example 214, (4-{2-[6-Amino-8-(2,5-dimethoxy-phenylsulfanyl)-purin-9-yl]-ethyl}-phenyl)-carbamic acid tert-butyl ester]	950 nM	–
COc1ccc(OC)c(Sc2nc3c(N)ncnc3n2CCc2ccc(N)cc2)c1 [Example 216, 9-[2-(4-Amino-phenyl)-ethyl]-8-(2,5-dimethoxy-phenylsulfanyl)-9H-purin-6-ylamine]	> 8000 nM	78%
COc1ccc(OC)c(Sc2nc3c(N)ncnc3n2CCc2cccc(OC(F)(F)F)c2)c1 [Example 217, 8-(2,5-Dimethoxy-phenylsulfanyl)-9-[2-(3-trifluoromethoxy-phenyl)-ethyl]-9H-purin-6-ylamine]	> 10000 nM	–
COc1ccc(OC)c(Sc2nc3c(N)ncnc3n2CCc2c(F)c(F)c(F)c(F)c2F)c1 [Example 218, 8-(2,5-Dimethoxy-phenylsulfanyl)-9-(2-pentafluorophenyl-ethyl)-9H-purin-6-ylamine]	> 3000 nM	–
COc1ccc(OC)c(Sc2nc3c(N)ncnc3n2CCc2cc(C(F)(F)F)cc(C(F)(F)F)c2)c1 [Example 219, 9-[2-(3,5-Bistrifluoromethyl-phenyl)-ethyl]-8-(2,5-dimethoxy-phenylsulfanyl)-9H-purin-6-ylamine]	> 8000 nM	–
Nc1ncnc2c1nc(Sc1cc3c(cc1Br)OCO3)n2CC1(c2ccc(Cl)cc2)CC1 [Example 221, 8-(6-Bromo-benzo[1,3]dioxol-5-ylsulfanyl)-9-[1-(4-chloro-phenyl)-cyclopropylmethyl]-9H-purin-6-ylamine]	> 9000 nM	–
COc1ccc(OC)c(Sc2nc3c(N)ncnc3n2CCc2cccc([N+](=O)[O-])c2)c1 [Example 223, 8-(2,5-Dimethoxy-phenylsulfanyl)-9-[2-(3-nitro-phenyl)-ethyl]-9H-purin-6-ylamine]	500 nM	–
O=c1[nH]cnc2c1nc(Sc1ccc3c(c1)OCO3)n2CCc1ccccc1 [Example 224, 8-(Benzo[1,3]dioxol-5-ylsulfanyl)-9-phenethyl-1,9-dihydro-purin-6-one]	> 5000 nM	–
Nc1ncnc2c1nc(Sc1cc3c(cc1Br)OCO3)n2CC(c1ccccc1)C1CCCCC1 (stereo not shown) [Example 226, 8-[(6-Bromo-1,3-benzodioxol-5-yl)thio]-9-(2-cyclohexyl-2-phenylethyl)-9H-purin-6-amine]	> 25000 nM	–
Nc1ncnc2c1nc(Sc1cc(OC(F)(F)F)ccc1Cl)n2CCc1ccccc1 [Example 228, 8-{[2-Chloro-5-(trifluoromethoxy)phenyl]thio}-9-(2-phenylethyl)-9H-purin-6-amine]	> 8000 nM	–
Nc1ncn(CCc2ccccc2)c2nc(Sc3cc(OC(F)(F)F)ccc3Cl)nc1-2 [Example 229, 8-{[2-Chloro-5-(trifluoromethoxy)phenyl]thio}-3-(2-phenylethyl)-3H-purin-6-amine]	–	24%
COc1ccc(OC)c(Sc2nc3c(N)nc(F)nc3n2CCc2ccccc2)c1 [Example 230, 8-[(2,5-Dimethoxyphenyl)thio]-2-fluoro-9-(2-phenylethyl)-9H-purin-6-amine]	210 nM	–
